Assay results from ChEMBL document CHEMBL1201862, “PubChem BioAssay data set” (2004).
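Results reflect a 48-hour exposure of cells in 96-well plates to compound at five concentrations. The concentration for 50% growth inhibition is given as GI50.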 Activity calls are given as the source filed them. Cut-off read from the data, not from the text of the source: active = GI50 up to about 1.1 µM and inactive = higher.

Experiments:
Assay in all cases: inhibition of tumour cell growth, NCI panel, 48 h
[1] = system: 786-0
[2] = system: A498
[3] = system: A549
[4] = system: ACHN
[5] = system: BT-549
[6] = system: CAKI-1
[7] = system: CCRF-CEM
[8] = system: COLO 205
[9] = system: DU-145
[10] = system: EKVX
[11] = system: HCC 2998
[12] = system: HCT-116
[13] = system: HCT-15
[14] = system: HL-60
[15] = system: HOP-62
[16] = system: HOP-92
[17] = system: HT-29
[18] = system: Hs-578T
[19] = system: IGROV-1
[20] = system: K562
[21] = system: KM12
[22] = system: LOX IMVI
[23] = system: M14
[24] = system: MCF7
[25] = system: MDA-MB-231
[26] = system: MDA-MB-435
[27] = system: MDA-N
[28] = system: MOLT-4
[29] = system: Malme-3M
[30] = system: NCI-H226
[31] = system: NCI-H23
[32] = system: NCI-H460
[33] = system: NCI-H522
[34] = system: NCI/ADR-RES
[35] = system: OVCAR-3
[36] = system: OVCAR-4
[37] = system: OVCAR-5
[38] = system: OVCAR-8
[39] = system: PC-3
[40] = system: RPMI-8226
[41] = system: SF-268
[42] = system: SF-295
[43] = system: SF-539
[44] = system: SK-MEL-28
[45] = system: SK-MEL-2
[46] = system: SK-MEL-5
[47] = system: SK-OV-3
[48] = system: SN12C
[49] = system: SNB-19
[50] = system: SNB-75
[51] = system: SW-620
[52] = system: T47D
[53] = system: TK-10
[54] = system: U-251
[55] = system: UACC-257
[56] = system: UACC-62
[57] = system: UO-31
[58] = system: RXF 393

Measured: GI50

Fc1ccc(C(OCCN2CC3CC2CN3CCCc2ccccc2)c2ccc(F)cc2)cc1 (stereo not drawn)
active: [50] 0.955 µM
4.63 µM: [13]
inactive: [1] 5.53 µM | [2] 4.98 µM | [3] 12 µM | [4] 11.5 µM | [5] 11.8 µM | [6] 10.1 µM | [7] 4.52 µM | [8] 1.68 µM | [9] 10.1 µM | [10] 6.01 µM | [11] 2.38 µM | [12] 5.86 µM | [14] 2.71 µM | [15] 11.4 µM | [16] 11.9 µM | [17] 3.85 µM | [18] 10.1 µM | [19] 10.1 µM | [20] 3.11 µM | [21] 4.85 µM | [22] 5.87 µM | [23] 2.02 µM | [24] 6.08 µM | [25] 4.61 µM | [26] 5.3 µM | [27] 6.27 µM | [28] 3.61 µM | [29] 2.93 µM | [30] 7.23 µM | [31] 11.4 µM | [32] 4.48 µM | [33] 7.98 µM | [34] 5.64 µM | [35] 9.98 µM | [36] 8.95 µM | [37] 11.3 µM | [38] 3.23 µM | [39] 5.98 µM | [40] 2.88 µM | [41] 10.2 µM | [42] 6.19 µM | [43] 2.37 µM | [44] 2.96 µM | [45] 9.95 µM | [46] 1.84 µM | [47] 15 µM | [48] 10.3 µM | [49] 13.3 µM | [51] 6.53 µM | [52] 2.07 µM | [53] 11.2 µM | [54] 6.71 µM | [55] 3.69 µM | [56] 11.1 µM | [57] 12.3 µM

O=C(O)c1ccccc1C(=O)Nc1cc2c(cc1Br)-c1ccccc1C2=O
> 100 µM: [13]
inactive: [1] > 100 µM | [2] > 100 µM | [3] > 100 µM | [4] > 100 µM | [5] > 100 µM | [6] > 100 µM | [7] 45.9 µM | [8] 68.5 µM | [9] 64.4 µM | [10] > 100 µM | [11] 23.2 µM | [12] > 100 µM | [14] 92.5 µM | [15] > 100 µM | [16] 48.1 µM | [17] > 100 µM | [18] 91.2 µM | [19] > 100 µM | [20] > 100 µM | [21] > 100 µM | [22] 81.1 µM | [23] > 100 µM | [24] > 100 µM | [25] > 100 µM | [26] > 100 µM | [27] > 100 µM | [28] 79.8 µM | [29] > 100 µM | [31] > 100 µM | [32] > 100 µM | [33] 59.7 µM | [34] > 100 µM | [35] 40.6 µM | [36] > 100 µM | [37] > 100 µM | [38] > 100 µM | [39] > 100 µM | [40] > 100 µM | [58] 48 µM | [41] > 100 µM | [43] > 100 µM | [44] 6.61 µM | [45] > 100 µM | [46] > 100 µM | [47] > 100 µM | [48] > 100 µM | [49] > 100 µM | [50] 47.5 µM | [51] > 100 µM | [52] > 100 µM | [53] > 100 µM | [54] 87.5 µM | [55] > 100 µM | [56] > 100 µM | [57] > 100 µM
